Results from patent US7858635B2 (priority 2005, dated 2010).

Key:
M4 muscarinic receptor = molecular target: T1, M4 muscarinic receptor (Homo sapiens, UniProt P08173); test: Functional mobilization of intracellular calcium (FLIPR, Fluo-3), M4-CHO cells; assay type: cell-based; conditions: compound nos. 1-454; for Emax: read-out: M4 Efficacy
T1 construct: expressed in transfected cells; host or cells: CHO cells (M4-CHO, under puromycin, zeocin and blasticidin selection)
T1 sequence (P08173 1-479): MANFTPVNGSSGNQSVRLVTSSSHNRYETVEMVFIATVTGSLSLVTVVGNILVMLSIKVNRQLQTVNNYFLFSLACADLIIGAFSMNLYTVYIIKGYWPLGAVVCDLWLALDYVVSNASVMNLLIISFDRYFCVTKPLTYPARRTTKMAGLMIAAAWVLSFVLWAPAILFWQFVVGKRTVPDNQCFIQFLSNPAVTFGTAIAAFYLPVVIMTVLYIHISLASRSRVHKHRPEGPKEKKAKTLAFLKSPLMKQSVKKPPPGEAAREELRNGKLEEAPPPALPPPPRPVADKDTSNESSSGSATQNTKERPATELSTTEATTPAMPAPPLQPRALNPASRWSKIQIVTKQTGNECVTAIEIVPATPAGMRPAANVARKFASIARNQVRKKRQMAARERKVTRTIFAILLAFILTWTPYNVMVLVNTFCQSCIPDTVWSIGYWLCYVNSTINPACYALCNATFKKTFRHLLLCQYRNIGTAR
Summary of the method: (§1)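 Fluo-3 read-out, ex 488/em 540 nm, 60 sec on FLIPR 3. For agonist mode, compound added directly; for inhibition, 15 min compound pre-incubation before carbachol at EC80 (added as a 3× solution), or co-application. Buffer pH 7.4 with 1 mM probenecid; DMSO 0.5%.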

M1 muscarinic receptor = molecular target: T2, M1 muscarinic receptor (Homo sapiens, UniProt P11229); test: Functional mobilization of intracellular calcium (FLIPR, Fluo-3), M1-CHO cells; assay type: cell-based; conditions: compound nos. 1-454; for Emax: read-out: M1 Efficacy
T2 construct: expressed in transfected cells; host or cells: CHO cells (M1-CHO, under zeocin and G418 selection)
T2 sequence (P11229 1-460): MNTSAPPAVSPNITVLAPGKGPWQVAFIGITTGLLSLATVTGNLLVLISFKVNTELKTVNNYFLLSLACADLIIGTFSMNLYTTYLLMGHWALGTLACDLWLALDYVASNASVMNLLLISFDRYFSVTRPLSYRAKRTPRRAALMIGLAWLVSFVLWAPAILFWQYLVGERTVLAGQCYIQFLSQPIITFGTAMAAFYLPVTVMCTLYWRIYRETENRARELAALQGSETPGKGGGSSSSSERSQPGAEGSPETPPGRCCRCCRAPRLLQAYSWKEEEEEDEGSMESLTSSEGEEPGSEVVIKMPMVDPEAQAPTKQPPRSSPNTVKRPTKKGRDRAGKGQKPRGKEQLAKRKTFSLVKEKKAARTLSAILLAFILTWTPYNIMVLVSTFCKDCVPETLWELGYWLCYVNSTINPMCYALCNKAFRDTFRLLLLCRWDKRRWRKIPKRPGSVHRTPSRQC
Summary of the method: as §1

[1] = 100% efficacy is the maximum response obtained with the Carbachol control

Q: `CCOC(=O)N1C2CCC1CC(N1CCC3(CC1)CN(C(=O)OC1CCC1)c1ccc(F)cc13)C2` (stereo not drawn) [compound 409] was tested. Which “M4 Activity” value (M4 muscarinic receptor) did it give?
A: Its value is “+++ (activity was measured to be less than or equal to 0.1 μM)”.

Q: What about the Emax (M4 muscarinic receptor; [1]) of the same compound?
A: Its Emax is over 70%.

Q: And the “M1 Activity” value (M1 muscarinic receptor)?
A: Its value is “+++ (activity was measured to be less than or equal to 0.7 μM)”.

Q: What about the Emax (M1 muscarinic receptor; [1]) of the same compound?
A: Its Emax is over 85%.

Q: What does the source list for `CCOC(=O)N1CCC(N2CCC3(CC2)CN(C(=O)c2cccc(F)c2)c2ccc(F)cc23)CC1` [compound 410]?
A: M4 Activity (M4 muscarinic receptor): ++ (activity was measured to be between 0.1 μM and 4.0 μM); Emax (M4 muscarinic receptor; [1]): < 55%; M1 Activity (M1 muscarinic receptor): ++ (activity was measured to be between 0.7 μM and 3.0 μM); Emax (M1 muscarinic receptor; [1]): < 65%

Q: How did the “M4 Activity” value (M4 muscarinic receptor) turn out when `Cc1cc(C(=O)N2CC3(CCN(C4CC5CCC(C4)N5C(=O)O[C@H]4CCOC4)CC3)c3cc(F)ccc32)nn1C` (stereo partly drawn) [compound 411] was run?
A: The value was “++ (activity was measured to be between 0.1 μM and 4.0 μM)”.

Q: And the “M4 Efficacy” value (M4 muscarinic receptor; [1])?
A: The value was “+ (efficacy was calculated to be 55% or less)”.

Q: What about the “M1 Activity” value (M1 muscarinic receptor) of the same compound?
A: The value was “+++ (activity was measured to be less than or equal to 0.7 μM)”.

Q: And the “M1 Efficacy” value (M1 muscarinic receptor; [1])?
A: The value was “+ (efficacy was calculated to be 65% or less)”.

Q: What does the source list for `COCCOC(=O)N1CCC(CN2CCC3(CC2)C[C@H](NC(C)=O)c2ccccc23)CC1` [compound 412]?
A: M4 Activity (M4 muscarinic receptor): + (activity was measured to be greater than or equal to 4.0 μM); Emax (M4 muscarinic receptor; [1]): < 55%; M1 Activity (M1 muscarinic receptor): ++ (activity was measured to be between 0.7 μM and 3.0 μM); Emax (M1 muscarinic receptor; [1]): < 65%

Q: For `CCOC(=O)N1CCC(N2CCC3(CC2)CN(C(C)=O)c2ccc(F)cc23)CC1` [compound 413], which “M4 Activity” value (M4 muscarinic receptor) is on record?
A: Its value is “++ (activity was measured to be between 0.1 μM and 4.0 μM)”.

Q: And the Emax (M4 muscarinic receptor; [1])?
A: Its Emax is under 55%.

Q: And the “M1 Activity” value (M1 muscarinic receptor)?
A: The value was “+++ (activity was measured to be less than or equal to 0.7 μM)”.

Q: What about the Emax (M1 muscarinic receptor; [1]) of the same compound?
A: Its Emax is under 65%.

Q: What does the source list for `CCOC(=O)N1CCC(CN2CCC3(CCc4ccccc43)CC2)CC1` [compound 414]?
A: M4 Activity (M4 muscarinic receptor): + (activity was measured to be greater than or equal to 4.0 μM); Emax (M4 muscarinic receptor; [1]): < 55%; M1 Activity (M1 muscarinic receptor): + (activity was measured to be greater than or equal to 3.0 μM); Emax (M1 muscarinic receptor; [1]): < 65%

Q: With `Clc1ccc2c(c1)C1(CCN(CC3CCOCC3)CC1)CO2` [compound 415] as the compound, how does the “M4 Activity” value (M4 muscarinic receptor) read?
A: The value was “+ (activity was measured to be greater than or equal to 4.0 μM)”.

Q: What about the Emax (M4 muscarinic receptor; [1]) of the same compound?
A: Its Emax is under 55%.

Q: And the “M1 Activity” value (M1 muscarinic receptor)?
A: Its value is “+ (activity was measured to be greater than or equal to 3.0 μM)”.

Q: And the Emax (M1 muscarinic receptor; [1])?
A: Its Emax is under 65%.

Q: Which “M4 Activity” value (M4 muscarinic receptor) does the source give for `Fc1ccc2c(c1)C1(CCN(C3CC4CCC3C4)CC1)CN2` (stereo not drawn) [compound 416] here?
A: Its value is “+ (activity was measured to be greater than or equal to 4.0 μM)”.

Q: And the Emax (M4 muscarinic receptor; [1])?
A: The Emax was under 55%.

Q: What about the “M1 Activity” value (M1 muscarinic receptor) of the same compound?
A: The value was “+ (activity was measured to be greater than or equal to 3.0 μM)”.

Q: What about the Emax (M1 muscarinic receptor; [1]) of the same compound?
A: Its Emax is under 65%.

Q: `CCOC(=O)N1C2CCC1CC(N1CCC3(CC1)CN(C(C)=O)c1ccc(Cl)cc13)C2` (stereo not drawn) [compound 417] was tested. Which “M4 Activity” value (M4 muscarinic receptor) did it give?
A: The value was “+ (activity was measured to be greater than or equal to 4.0 μM)”.

Q: What about the Emax (M4 muscarinic receptor; [1]) of the same compound?
A: Its Emax is under 55%.

Q: What about the “M1 Activity” value (M1 muscarinic receptor) of the same compound?
A: The value was “++ (activity was measured to be between 0.7 μM and 3.0 μM)”.

Q: What about the Emax (M1 muscarinic receptor; [1]) of the same compound?
A: Its Emax is under 65%.

Q: `CC(=O)N1CC2(CCN(C3CCN(C(=O)O[C@H]4CCOC4)CC3)CC2)c2cc(F)ccc21` [compound 418] was tested. Which “M4 Activity” value (M4 muscarinic receptor) did it give?
A: The value was “+ (activity was measured to be greater than or equal to 4.0 μM)”.

Q: And the Emax (M4 muscarinic receptor; [1])?
A: The Emax was under 55%.

Q: What about the “M1 Activity” value (M1 muscarinic receptor) of the same compound?
A: The value was “+ (activity was measured to be greater than or equal to 3.0 μM)”.

Q: And the Emax (M1 muscarinic receptor; [1])?
A: Its Emax is under 65%.

Q: For `COCCOC(=O)N1CCC(CN2CCC3(CC2)CN(C(C)=O)c2ccc(C)cc23)CC1` [compound 419], which “M4 Activity” value (M4 muscarinic receptor) is on record?
A: Its value is “+ (activity was measured to be greater than or equal to 4.0 μM)”.

Q: And the Emax (M4 muscarinic receptor; [1])?
A: Its Emax is under 55%.

Q: And the “M1 Activity” value (M1 muscarinic receptor)?
A: The value was “+ (activity was measured to be greater than or equal to 3.0 μM)”.

Q: What about the Emax (M1 muscarinic receptor; [1]) of the same compound?
A: Its Emax is under 65%.

Q: What does the source list for `c1ccc2c(c1)NCC21CCN(C2CC3CCC(C3)C2)CC1` (stereo not drawn) [compound 420]?
A: M4 Activity (M4 muscarinic receptor): + (activity was measured to be greater than or equal to 4.0 μM); Emax (M4 muscarinic receptor; [1]): < 55%; M1 Activity (M1 muscarinic receptor): ++ (activity was measured to be between 0.7 μM and 3.0 μM); Emax (M1 muscarinic receptor; [1]): < 65%
